Source: DBAASP
≈ marks a conversion by molar mass, not a printed value. Where “and” joins values, the source holds several entries; their conditions need not be identical. Identical values can stand only once.

Key:
Assay in all cases: ≥ marks a high value that may be exact or a test limit, other limits are often not marked, values filed in µg/mL are converted to µM
Staphylococcus aureus = system: Staphylococcus aureus
Staphylococcus aureus MR = system: Staphylococcus aureus MR
[1] = system: Staphylococcus aureus NCTC 10788
[2] = system: Escherichia coli NCTC 10418
[3] = system: Bacillus subtilis KCTC 3068
[4] = system: Pseudomonas aeruginosa KCTC 1637
[5] = system: Escherichia coli KCTC 1682
[6] = system: Staphylococcus aureus KCTC 1621
[7] = system: Staphylococcus epidermidis KCTC 1917
[8] = system: Salmonella typhimurium KCTC 1926
Pseudomonas aeruginosa = system: Pseudomonas aeruginosa
Escherichia coli = system: Escherichia coli
Candida albicans = system: Candida albicans
Salmonella typhimurium = system: Salmonella typhimurium
[9] = system: Staphylococcus aureus ATCC 29213
Escherichia coli MG1655 = system: Escherichia coli MG1655
[10] = system: Pseudomonas aeruginosa PAO1
[11] = system: Staphylococcus aureus ATCC 25923

SMILES | MIC [3] [µM] | MIC [4] [µM] | MIC [5] [µM] | MIC [6] [µM] | MIC [7] [µM] | MIC [8] [µM] | also measured
CC(C)C[C@H](NC(=O)[C@@H](NC(=O)[C@H](CCCN=C(N)N)NC(=O)[C@H](CCCN=C(N)N)NC(=O)[C@@H](NC(=O)[C@@H](NC(=O)[C@H](CCCN=C(N)N)NC(=O)[C@H](CCCN=C(N)N)NC(=O)[C@@H](NC(=O)[C@H](CC(C)C)NC(=O)[C@@H](N)CCCN=C(N)N)C(C)C)C(C)C)C(C)C)C(C)C)C(=O)N[C@@H](CCCN=C(N)N)C(N)=O [RLVRRVVRRVLR] | – | – | – | – | – | – | MIC (Staphylococcus aureus): 60.8 µM (≈ 95.9 µg/mL); MIC (Staphylococcus aureus MR): ≥ 63.4 µM
CC[C@H](C)[C@H](NC(=O)CNC(=O)[C@H](C)NC(=O)[C@@H](NC(=O)[C@H](C)NC(=O)[C@@H]1CCCN1C(=O)[C@H](CC(C)C)NC(=O)[C@@H](N)Cc1ccccc1)[C@@H](C)CC)C(=O)N[C@@H](CC(C)C)C(=O)N[C@@H](CO)C(=O)N[C@@H](CCC(N)=O)C(=O)N[C@@H](CC(C)C)C(=O)N[C@@H](Cc1ccccc1)C(N)=O [FLPAIAGILSQLF] | – | – | – | – | – | – | MIC [1]: ≥ 200 µM; MIC [2]: ≥ 50 µM
CC(C)C[C@H](NC(=O)[C@H](Cc1ccccc1)NC(=O)[C@H](CCCN=C(N)N)NC(=O)[C@H](CCCCN)NC(=O)[C@H](Cc1c[nH]c2ccccc12)NC(=O)[C@H](CCCN=C(N)N)NC(=O)[C@H](CCC(N)=O)NC(=O)[C@@H](NC(=O)[C@H](Cc1c[nH]c2ccccc12)NC(=O)[C@H](CCCN=C(N)N)NC(=O)[C@H](CCCCN)NC(=O)[C@@H](N)Cc1c[nH]c2ccccc12)C(C)C)C(=O)N[C@@H](CCCN=C(N)N)C(N)=O [WKRWVQRWKRFLR] | 4 (≈ 7.78 µg/mL) | 16 (≈ 31.1 µg/mL) | 4 (≈ 7.78 µg/mL) | 2 (≈ 3.89 µg/mL) | 4 (≈ 7.78 µg/mL) | 2 (≈ 3.89 µg/mL) | –
CC[C@H](C)[C@H](NC(=O)[C@H](C)NC(=O)[C@H](CC(C)C)NC(=O)[C@H](Cc1c[nH]c2ccccc12)NC(=O)[C@H](CC(C)C)NC(=O)[C@H](C)N)C(=O)N[C@@H](CCCN=C(N)N)C(=O)N[C@@H](CCCCN)C(=O)N[C@@H](CCCN=C(N)N)C(N)=O [ALWLAIRKR] | – | – | – | – | – | – | MIC (Pseudomonas aeruginosa): 8.88 µM (≈ 9.99 µg/mL); MIC (Staphylococcus aureus): 3.55 µM (≈ 4 µg/mL); MIC (Escherichia coli): 8.88 µM (≈ 9.99 µg/mL); MIC (Staphylococcus aureus MR): ≥ 35.5 µM
CC[C@H](C)[C@H](N)C(=O)N[C@@H](CC(C)C)C(=O)N1CCC[C@H]1C(=O)N[C@@H](Cc1c[nH]c2ccccc12)C(=O)N[C@@H](CCCCN)C(=O)N[C@@H](Cc1c[nH]c2ccccc12)C(=O)N1CCC[C@H]1C(=O)N[C@@H](CCCCN)C(=O)N[C@@H](CCCCN)C(=O)N1CCC[C@H]1C(=O)N[C@@H](Cc1c[nH]c2ccccc12)C(=O)N[C@@H](CCCN=C(N)N)C(=O)N[C@@H](CCCN=C(N)N)C(N)=O [ILPWKWPKKPWRR] | 5.58 (≈ 9.99 µg/mL) | 22.3 (≈ 40 µg/mL) | 2.79 (≈ 5 µg/mL) | 2.79 (≈ 5 µg/mL) | 2.79 (≈ 5 µg/mL) | 2.79 (≈ 5 µg/mL) | –
CC[C@H](C)[C@H](NC(=O)[C@H](CCCN=C(N)N)NC(=O)[C@@H]1CCCN1C(=O)[C@H](CC(C)C)NC(=O)[C@@H](N)CCCN=C(N)N)C(=O)N[C@@H](Cc1c[nH]c2ccccc12)C(=O)N[C@@H](Cc1c[nH]c2ccccc12)C(=O)N[C@H](C(=O)N[C@@H](CCCN=C(N)N)C(=O)N[C@H](C(=O)N1CCC[C@H]1C(=O)N[C@@H](CCCN=C(N)N)C(N)=O)C(C)C)[C@@H](C)CC [RLPRIWWIRVPR] | 3.79 (≈ 6.25 µg/mL) | 3.79 (≈ 6.25 µg/mL) | 7.58 (≈ 12.5 µg/mL) | 7.58 (≈ 12.5 µg/mL) | 3.79 (≈ 6.25 µg/mL) | 1.9 (≈ 3.13 µg/mL) | –
CC[C@H](C)[C@H](N)C(=O)N[C@@H](CC(C)C)C(=O)N1CCC[C@H]1C(=O)N[C@@H](Cc1c[nH]c2ccccc12)C(=O)N[C@@H](CCCCN)C(=O)N[C@@H](Cc1c[nH]c2ccccc12)C(=O)N1CCC[C@H]1C(=O)N[C@@H](Cc1c[nH]c2ccccc12)C(=O)N[C@@H](C)C(=O)N1CCC[C@H]1C(=O)N[C@@H](C)C(=O)N[C@@H](CCCN=C(N)N)C(=O)N[C@@H](CCCN=C(N)N)C(N)=O [ILPWKWPWAPARR] | – | – | – | – | – | – | MIC (Pseudomonas aeruginosa): 23.9 µM (≈ 40 µg/mL); MIC (Staphylococcus aureus): 11.9 µM (≈ 20 µg/mL); MIC (Escherichia coli): 119 µM (≈ 200 µg/mL); MIC (Candida albicans): 0.0012 µM (≈ 0.00201 µg/mL); MIC (Salmonella typhimurium): 11.9 µM (≈ 20 µg/mL)
CC[C@H](C)[C@H](NC(=O)[C@H](C)NC(=O)[C@H](CC(C)C)NC(=O)[C@H](Cc1ccc(O)cc1)NC(=O)[C@H](CC(C)C)NC(=O)[C@H](C)N)C(=O)N[C@@H](CCCN=C(N)N)C(=O)N[C@@H](CCCCN)C(=O)N[C@@H](CCCN=C(N)N)C(N)=O [ALYLAIRKR] | – | – | – | – | – | – | MIC (Pseudomonas aeruginosa): 3.63 µM (≈ 4 µg/mL); MIC (Staphylococcus aureus): 2.72 µM (≈ 3 µg/mL); MIC (Escherichia coli): 3.63 µM (≈ 4 µg/mL); MIC (Staphylococcus aureus MR): 27.2 µM (≈ 30 µg/mL)
CC[C@H](C)[C@H](N)C(=O)N[C@@H](CC(C)C)C(=O)N1CCC[C@H]1C(=O)N[C@@H](Cc1c[nH]c2ccccc12)C(=O)N[C@@H](CCCCN)C(=O)N[C@@H](Cc1c[nH]c2ccccc12)C(=O)N1CCC[C@H]1C(=O)N[C@@H](Cc1c[nH]c2ccccc12)C(=O)N[C@@H](Cc1c[nH]c2ccccc12)C(=O)N[C@@H](CCCCN)C(=O)N[C@@H](Cc1c[nH]c2ccccc12)C(=O)N[C@@H](CCCN=C(N)N)C(=O)N[C@@H](CCCN=C(N)N)C(N)=O [ILPWKWPWWKWRR] | 5.16 (≈ 10 µg/mL) | 10.3 (≈ 20 µg/mL) | 10.3 (≈ 20 µg/mL) | 2.58 (≈ 5 µg/mL) | 5.16 (≈ 10 µg/mL) | 5.16 (≈ 10 µg/mL) | –
CC[C@H](C)[C@H](NC(=O)[C@@H](NC(=O)[C@@H]1CCCN1C(=O)[C@@H](NC(=O)[C@@H](NC(=O)[C@H](Cc1cnc[nH]1)NC(=O)[C@@H]1CCCN1C(=O)[C@H](CC(C)C)NC(=O)[C@@H](NC(=O)[C@H](Cc1cnc[nH]1)NC(=O)[C@H](CCCCN)NC(=O)[C@H](C)NC(=O)[C@@H](NC(=O)[C@H](CO)NC(=O)CNC(=O)[C@H](CC(C)C)NC(=O)[C@@H](NC(=O)[C@H](CO)NC(=O)[C@H](CC(C)C)NC(=O)[C@H](CC(C)C)NC(=O)CN)C(C)C)C(C)C)C(C)C)C(C)C)C(C)C)C(C)C)C(=O)N[C@@H](C)C(=O)N[C@@H](CCC(=O)O)C(=O)N[C@@H](Cc1cnc[nH]1)C(=O)N[C@@H](CC(C)C)C(N)=O [GLLSVLGSVAKHVLPHVVPVIAEHL] | – | – | – | – | – | – | MIC [9]: 8 µM (≈ 20.7 µg/mL); MIC (Escherichia coli MG1655): ≥ 120 µM
CC[C@H](C)[C@H](N)C(=O)NCC(=O)N[C@@H](CCCCN)C(=O)N[C@@H](CCCCN)C(=O)N[C@@H](Cc1ccccc1)C(=O)N[C@@H](CCCCN)C(=O)N[C@@H](CCCN=C(N)N)C(=O)N[C@H](C(=O)N[C@H](C(=O)N[C@@H](CCCCN)C(=O)N[C@@H](CCCN=C(N)N)C(=O)N[C@H](C(=O)N[C@@H](CCCCN)C(=O)N[C@@H](CCCCN)C(=O)N[C@@H](Cc1ccccc1)C(=O)N[C@@H](CC(C)C)C(=O)N[C@@H](CCCN=C(N)N)C(=O)N[C@@H](CCCCN)C(=O)N[C@@H](CC(C)C)C(=O)O)[C@@H](C)CC)C(C)C)[C@@H](C)CC [IGKKFKRIVKRIKKFLRKL] | 2 (≈ 4.8 µg/mL) | 8 (≈ 19.2 µg/mL) | 8 (≈ 19.2 µg/mL) | 4 (≈ 9.6 µg/mL) | 4 (≈ 9.6 µg/mL) | 2 (≈ 4.8 µg/mL) | –
CSCC[C@H](NC(=O)[C@@H](NC(=O)[C@H](CCCCN)NC(=O)[C@H](Cc1cnc[nH]1)NC(=O)[C@H](CC(C)C)NC(=O)CN)C(C)C)C(=O)N[C@@H](CCCN=C(N)N)C(=O)N[C@@H](CCC(=O)O)C(=O)N[C@H](C(=O)N[C@@H](CC(C)C)C(=O)NCC(=O)N[C@@H](Cc1ccc(O)cc1)C(=O)N[C@@H](CCC(=O)O)C(=O)N[C@@H](CCCN=C(N)N)C(=O)N[C@@H](CC(N)=O)C(=O)N[C@@H](CO)C(=O)N[C@@H](Cc1ccc(O)cc1)C(=O)N[C@@H](CCCCN)C(N)=O)C(C)C [GLHKVMREVLGYERNSYK] | – | – | – | – | – | – | MIC (Escherichia coli MG1655): ≥ 128 µM; MIC (Candida albicans): > 128 µM; MIC [10]: > 128 µM; MIC [11]: > 128 µM
CC[C@H](C)[C@H](NC(=O)CNC(=O)[C@@H]1CCCN1C(=O)[C@H](CC(C)C)NC(=O)[C@@H](N)Cc1ccccc1)C(=O)N[C@@H](CC(C)C)C(=O)N[C@@H](CCCCN)C(=O)N[C@H](C(=O)N[C@@H](C)C(=O)N[C@@H](C)C(=O)N[C@@H](CC(N)=O)C(=O)N[C@H](C(=O)N[C@H](C(=O)N1CCC[C@H]1C(=O)NCC(=O)N[C@H](C(=O)N[C@H](C(=O)N[C@H]1CSSC[C@@H](C(=O)O)NC(=O)[C@H](CCCCN)NC(=O)[C@H](CCCCN)NC(=O)[C@H]([C@@H](C)O)NC(=O)[C@H]([C@@H](C)CC)NC(=O)[C@H](C)NC1=O)[C@@H](C)CC)C(C)C)C(C)C)C(C)C)C(C)C [FLPGILKVAANVVPGVICAITKKC] | – | – | – | – | – | – | MIC [1]: 4 µM and 8 µM; MIC [2]: ≥ 256 µM
C[C@@H](O)[C@H](NC(=O)[C@H](CCCCN)NC(=O)[C@H](Cc1c[nH]c2ccccc12)NC(=O)[C@H](Cc1c[nH]c2ccccc12)NC(=O)[C@@H](NC(=O)[C@H](CCCCN)NC(=O)[C@@H](N)CCCCN)[C@@H](C)O)C(=O)N[C@@H](Cc1c[nH]c2ccccc12)C(=O)N[C@@H](Cc1c[nH]c2ccccc12)C(=O)N[C@H](C(=O)N[C@@H](CCCCN)C(=O)N[C@@H](Cc1c[nH]c2ccccc12)C(=O)N[C@@H](CO)C(=O)N[C@@H](CCC(N)=O)C(=O)N1CCC[C@H]1C(=O)N[C@@H](CCCCN)C(=O)N[C@@H](CCCCN)C(=O)O)[C@@H](C)O [KKTWWKTWWTKWSQPKK] | 2 (≈ 4.67 µg/mL) | 4 (≈ 9.34 µg/mL) | 2 (≈ 4.67 µg/mL) | 2 (≈ 4.67 µg/mL) | 2 (≈ 4.67 µg/mL) | 2 (≈ 4.67 µg/mL) | –
